Test results: patent publication US9115092B2, “Substituted quinazoline and pyrido-pyrimidine derivatives” (Asana Biosciences, LLC, priority 2010, dated 2015)

Assays:
[1] = target: T1, PI3Kα (wild-type), P110/P85α (Homo sapiens, UniProt P42336); experiment: PI3 Kinase TR-FRET assay, PI3Kα (wild-type); type: biochemical
T1 construct: made in house; host or cells: SF9 insect cells
Method in brief: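 TR-FRET read-out of PIP3 formation via biotin-PIP3 displacement (665/615 nm ratio) gave IC50 curves. Enzyme: 5 ng wild-type P110/P85α from Sf9 cells, 60 min RT with compound and PIP2 (MgCl2 40 mM, DTT 5 mM), then 30 min RT kinase reaction at 10 μM ATP and 10 μM PIP2.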

mTOR kinase = target: T2, mTOR kinase (Homo sapiens, UniProt P42345); experiment: mTOR kinase TR-FRET assay; type: biochemical; details: read-out: mTO R
T2 construct: purchased Millipore, USA
Method in brief: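 TR-FRET read-out (340 nm excitation, 615/665 nm emission) of Thr389 phosphorylation of a ULight-labeled p70 S6K peptide (50 nM) by mTOR, 20 μM ATP, 60 min room temperature after 60 min compound preincubation. Buffer HEPES pH 7.5 with MnCl2, EGTA; IC50 by sigmoidal dose-response.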

[2] = system: pS6RP(S235/236), PC3 cells; experiment: In-cell Western assay, pS6RP(S235/236) in PC3 cells; type: cell-based, human; details: Homo sapiens, PC-3, In-cell Western
Method in brief: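 Overnight-seeded PC3 cells were treated 2 h with serially diluted compound, then fixed and immunostained with phospho-specific primary antibodies and Eu-labelled secondary. Time-resolved Eu signal read at 615 nm (ex 340 nm), normalised by Hoechst 33258 staining (ex 355/em 460 nm); IC50 from sigmoidal dose-response fit.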

PC3 cells = experiment: XTT assay for cell viability, PC3 cells; type: cell-based, human; details: Homo sapiens, PC-3, cell viability
Method in brief: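 PC3 cells seeded at 1000 cells/well, grown 24 h, then exposed to serial dilutions of compound for 96 h. Viability read by XTT dye at 37° C, absorbance 465 nm. EC50 from sigmoidal dose-response fit.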

T1 sequence (P42336 whole entry): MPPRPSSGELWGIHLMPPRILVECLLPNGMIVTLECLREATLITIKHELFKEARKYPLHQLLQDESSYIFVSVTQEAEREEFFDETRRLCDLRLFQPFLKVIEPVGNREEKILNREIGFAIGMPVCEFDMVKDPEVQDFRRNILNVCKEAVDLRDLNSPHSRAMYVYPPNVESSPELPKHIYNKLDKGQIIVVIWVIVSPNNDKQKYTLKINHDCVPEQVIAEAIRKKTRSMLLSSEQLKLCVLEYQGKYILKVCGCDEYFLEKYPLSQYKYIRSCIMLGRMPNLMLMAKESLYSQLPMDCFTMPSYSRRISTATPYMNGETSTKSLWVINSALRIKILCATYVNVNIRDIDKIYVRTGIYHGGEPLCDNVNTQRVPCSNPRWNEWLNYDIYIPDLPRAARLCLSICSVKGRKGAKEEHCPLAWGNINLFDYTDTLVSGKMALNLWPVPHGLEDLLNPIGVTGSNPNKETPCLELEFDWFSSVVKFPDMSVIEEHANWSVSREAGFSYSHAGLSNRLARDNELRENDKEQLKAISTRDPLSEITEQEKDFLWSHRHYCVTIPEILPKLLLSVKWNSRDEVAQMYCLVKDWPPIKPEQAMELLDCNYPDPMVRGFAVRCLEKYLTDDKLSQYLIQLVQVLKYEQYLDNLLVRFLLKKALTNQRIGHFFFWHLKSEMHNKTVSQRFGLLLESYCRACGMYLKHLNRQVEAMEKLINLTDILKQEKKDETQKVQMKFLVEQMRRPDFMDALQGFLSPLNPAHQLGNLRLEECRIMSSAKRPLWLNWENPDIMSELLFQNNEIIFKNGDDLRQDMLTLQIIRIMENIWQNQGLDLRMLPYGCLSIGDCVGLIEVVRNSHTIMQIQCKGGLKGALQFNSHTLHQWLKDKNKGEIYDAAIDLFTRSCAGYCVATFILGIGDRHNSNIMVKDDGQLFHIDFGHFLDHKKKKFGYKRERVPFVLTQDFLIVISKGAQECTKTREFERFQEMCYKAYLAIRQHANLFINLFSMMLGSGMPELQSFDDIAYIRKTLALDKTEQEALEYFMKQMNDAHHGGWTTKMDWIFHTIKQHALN
T1 sequence (P27986 whole entry partner): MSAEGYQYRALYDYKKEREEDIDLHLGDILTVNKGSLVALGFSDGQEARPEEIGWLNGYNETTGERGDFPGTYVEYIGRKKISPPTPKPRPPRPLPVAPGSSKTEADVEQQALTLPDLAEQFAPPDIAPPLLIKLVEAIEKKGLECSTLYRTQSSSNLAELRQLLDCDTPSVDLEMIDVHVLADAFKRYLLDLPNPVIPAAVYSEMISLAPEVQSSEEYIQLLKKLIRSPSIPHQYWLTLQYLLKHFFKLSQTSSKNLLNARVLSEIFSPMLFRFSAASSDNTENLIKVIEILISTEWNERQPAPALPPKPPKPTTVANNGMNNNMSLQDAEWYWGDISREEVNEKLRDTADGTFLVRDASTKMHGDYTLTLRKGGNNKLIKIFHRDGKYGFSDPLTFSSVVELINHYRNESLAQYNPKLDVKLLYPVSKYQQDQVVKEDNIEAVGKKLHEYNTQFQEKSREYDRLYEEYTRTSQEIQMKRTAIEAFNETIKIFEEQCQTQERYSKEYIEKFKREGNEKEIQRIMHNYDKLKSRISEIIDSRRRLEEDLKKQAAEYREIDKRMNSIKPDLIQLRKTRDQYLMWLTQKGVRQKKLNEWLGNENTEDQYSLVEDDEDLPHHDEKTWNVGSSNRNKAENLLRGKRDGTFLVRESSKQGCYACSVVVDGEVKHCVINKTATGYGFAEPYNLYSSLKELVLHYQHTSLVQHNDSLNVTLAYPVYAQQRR

Compound | IC50 [1] [nM] | IC50 (mTOR kinase) [nM] | IC50 [2] [nM] | IC50 (PC3 cells) [nM]
CN(C)C(=O)c1ccc(NC(=O)Nc2ccc(-c3nc(N4CCOCC4)c4ccc(-c5cncnc5)cc4n3)cc2F)cn1 [Example 123, 5-(3-(2-fluoro-4-(4-morpholino-7-(pyrimidin-5-yl)quinazolin-2-yl)phenyl)ureido)-N,N-dimethylpicolinamide] | 50 to 200 | < 50 | 201 to 10000 | 201 to 10000
CC1CN(c2nc(-c3ccc(NC(=O)Nc4ccc(C(=O)N(C)C)cc4)cc3)nc3cc(-c4cncnc4)ccc23)CC(C)O1 (stereo not shown) [Example 128, 4-(3-(4-(4-(2,6-dimethylmorpholino)-7-(pyrimidin-5-yl)quinazolin-2-yl)phenyl)ureido)-N,N-dimethyl-benzamide] | 201 to 10000 | < 50 | 201 to 10000 | < 100
CC1CN(c2nc(-c3ccc(NC(=O)Nc4ccc(C(=O)N(C)C)cc4)c(F)c3)nc3cc(-c4cncnc4)ccc23)CC(C)O1 (stereo not shown) [Example 132, 4-(3-(4-(4-(2,6-dimethylmorpholino)-7-(pyrimidin-5-yl)quinazolin-2-yl)-2-fluorophenyl)ureido)-N,N-dimethyl-benzamide] | 201 to 10000 | 50 to 200 | 201 to 10000 | 201 to 10000
CN(C)C(=O)c1ccc(NC(=O)Nc2ccc(-c3nc(N4CCOCC4)c4ncc(-c5cnn(C)c5)cc4n3)cc2)c(F)c1 [Example 134, 3-fluoro-N,N-dimethyl-4-(3-(4-(7-(1-methyl-1H-pyrazol-4-yl)-4-morpholino-pyrido[3,2-d]pyrimidin-2-yl)phenyl)ureido)-benzamide] | < 50 | < 50 | 201 to 10000 | 201 to 10000

The remaining lines, values ahead:

IC50 [1] [nM] | IC50 (mTOR kinase) [nM] | IC50 [2] [nM] | IC50 (PC3 cells) [nM] | Compound
< 50 | < 50 | 201 to 10000 | 201 to 10000 | Cc1noc(C)c1-c1cnc2c(N3CCOCC3)nc(-c3ccc(NC(=O)Nc4ccc(C(=O)N(C)C)cc4)cc3)nc2c1 [Example 120, 4-(3-(4-(7-(3,5-dimethylisoxazol-4-yl)-4-morpholino-pyrido[3,2-d]pyrimidin-2-yl)phenyl)ureido)-N,N-dimethyl-benzamide]
< 50 | < 50 | 201 to 10000 | 201 to 10000 | Cc1noc(C)c1-c1ccc2c(N3CCOCC3)nc(-c3ccc(NC(=O)Nc4ccc(C(=O)N(C)C)cc4)cc3)nc2c1 [Example 121, 4-(3-(4-(7-(3,5-dimethylisoxazol-4-yl)-4-morpholino-quinazolin-2-yl)phenyl)ureido)-N,N-dimethyl-benzamide]
< 50 | < 50 | 201 to 10000 | 201 to 10000 | CN(C)C(=O)c1ccc(NC(=O)Nc2ccc(-c3nc(N4CCOCC4)c4ncc(-c5cnc(N)nc5)cc4n3)cc2F)cc1 [Example 127, 4-(3-(4-(7-(2-aminopyrimidin-5-yl)-4-morpholinopyrido[3,2-d]pyrimidin-2-yl)-2-fluorophenyl)ureido)-N,N-dimethyl-benzamide]
< 50 | 50 to 200 | < 100 | 501 to 5000 | Cc1ccc(-c2ccc3c(N4CCOCC4)nc(-c4ccc(NC(=O)Nc5ccc(C(=O)N(C)C)nc5)nc4)nc3c2)o1 [Example 129, N,N-dimethyl-5-(3-(5-(7-(5-methylfuran-2-yl)-4-morpholino-quinazolin-2-yl)pyridin-2-yl)ureido)picolinamide]
< 50 | < 50 | 201 to 10000 | 201 to 10000 | CN(C)C(=O)c1ccc(NC(=O)Nc2ccc(-c3nc(N4CCOCC4)c4ccc(-c5cccc(S(C)(=O)=O)c5)cc4n3)cc2F)cn1 [Example 130, 5-(3-(2-fluoro-4-(7-(3-(methylsulfonyl)phenyl)-4-morpholino-quinazolin-2-yl)phenyl)ureido)-N,N-dimethylpicolinamide]
< 50 | 50 to 200 | 201 to 10000 | 201 to 10000 | Cc1noc(C)c1-c1ccc2c(N3CCOCC3)nc(-c3ccc(NC(=O)Nc4ccc(C(=O)N(C)C)cc4)c(F)c3)nc2c1 [Example 131, 4-(3-(4-(7-(3,5-dimethylisoxazol-4-yl)-4-morpholino-quinazolin-2-yl)-2-fluorophenyl)ureido)-N,N-dimethyl-benzamide]
